Assay [1] deals with mouse cremaster muscle venules. Kind of assay: Model of vascular injury: ischemia and reperfusion in the mouse cremaster muscle (leukocyte rolling and adhesion). The settings on record: wortmannin 100 nM or L-NAME 0.1 mM during ischemia. It is filed as in vivo. As for the experimental part:
(§1) Mice were anesthetized and the cremaster muscle was studied under intravital microscopy^28. Ischemia was induced by applying pressure to supplying arteries just sufficient to stop blood flow for 30 min. In some experiments, wortmannin (100 nM) or L-NAME (0.1 mM) was applied to the cremaster muscle during the ischemic period. The pressure was released for reperfusion, and the same vessels were recorded in each animal before and after I/R. The rolling velocities of 25 leukocytes were measured in each venule; sorted and averaged for each rank to construct cumulative histograms. The velocities of 3,750 leukocytes were measured in 150 venules before and after I/R. The number of firmly adherent leukocytes was measured before and after I/R in the same 200 μm long segments of venules.

In assay [2] the target is T1, eNOS (Mus musculus, UniProt P70313).
T1 construct: from tissue; host or cells: cremaster muscle of male C57BL/6 mice
T1 sequence (P70313 2-1202): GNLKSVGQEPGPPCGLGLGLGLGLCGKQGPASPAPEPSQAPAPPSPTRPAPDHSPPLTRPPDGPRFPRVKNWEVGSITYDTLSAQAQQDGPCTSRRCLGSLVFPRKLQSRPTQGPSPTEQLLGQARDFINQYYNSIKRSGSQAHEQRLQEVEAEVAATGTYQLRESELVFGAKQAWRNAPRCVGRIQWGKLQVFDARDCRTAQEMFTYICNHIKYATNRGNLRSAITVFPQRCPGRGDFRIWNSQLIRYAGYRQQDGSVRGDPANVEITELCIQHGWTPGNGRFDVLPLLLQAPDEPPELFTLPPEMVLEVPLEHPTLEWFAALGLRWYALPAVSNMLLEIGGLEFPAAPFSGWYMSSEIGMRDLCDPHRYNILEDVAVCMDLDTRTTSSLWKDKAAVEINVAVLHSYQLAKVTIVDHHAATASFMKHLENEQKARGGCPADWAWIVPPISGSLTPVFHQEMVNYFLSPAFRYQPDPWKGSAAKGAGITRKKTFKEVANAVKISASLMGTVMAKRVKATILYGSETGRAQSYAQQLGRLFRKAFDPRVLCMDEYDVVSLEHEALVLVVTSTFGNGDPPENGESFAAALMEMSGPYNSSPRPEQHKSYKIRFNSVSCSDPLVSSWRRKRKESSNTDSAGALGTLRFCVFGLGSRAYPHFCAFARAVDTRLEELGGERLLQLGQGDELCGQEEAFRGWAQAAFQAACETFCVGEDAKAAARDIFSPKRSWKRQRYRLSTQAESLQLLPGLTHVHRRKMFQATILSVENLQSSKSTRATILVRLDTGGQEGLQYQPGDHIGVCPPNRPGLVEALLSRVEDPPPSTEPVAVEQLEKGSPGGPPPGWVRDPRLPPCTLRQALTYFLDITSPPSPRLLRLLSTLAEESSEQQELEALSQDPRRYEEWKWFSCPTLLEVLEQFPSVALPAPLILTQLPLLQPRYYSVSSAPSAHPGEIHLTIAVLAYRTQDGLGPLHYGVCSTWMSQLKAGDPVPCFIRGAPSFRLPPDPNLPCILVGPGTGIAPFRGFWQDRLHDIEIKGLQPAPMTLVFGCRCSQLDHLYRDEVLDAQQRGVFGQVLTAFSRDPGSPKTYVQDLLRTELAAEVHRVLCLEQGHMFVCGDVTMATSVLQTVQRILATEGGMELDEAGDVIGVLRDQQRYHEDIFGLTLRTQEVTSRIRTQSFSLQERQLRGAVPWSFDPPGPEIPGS
Nature of the assay: Cremaster eNOS activity in mice. It is filed as in vivo. The settings on record: L-NAME 0.1 mM, E2-treated mice. As for the experimental part:
as §1, with “venules. The following number of venules were studies for leukocyte adhesion: Untreated, 15 venules; E2-treated, 20 venules; E2-treated with wortmannin, 25 venules; E2-treated with L-NAME, 15 venules. Cremaster eNOS activity was measured in 3 untreated, 4 E2-treated, 5 E2-treated with wortmannin, and 4 E2-treated with L-NAME mice.” for “venules.”

Assay [3] deals with eNOS. Kind of assay: eNOS activity assay (conversion of [3H]-arginine to [3H]-citrulline) in treated human endothelial cells. Particulars: E2 10 nM, wortmannin 30 nM, genistein 50 μM, PD98059 5 μM; for effect on E2-stimulated eNOS activity, later phase (≥15 min) or 30 min: ICI 10 μM, actinomycin D 2 h pretreatment. It counts as cell-based. As for the experimental part:
Fetal bovine serum was deprived of estrogen by charcoal-stripping. Once grown to confluence the cells were replated on 1.5% gelatin-coated flasks at 20000 cells/cm^2. […] Cell number was assessed by direct cell counting of adherent cells, after trypsin detachment, in a Neubauer hemocytometer (VWR Scientifics). The percentage of cells excluding Trypan Blue after staining with the compound was taken as a measure of cell viability.
Endothelial cells were grown to confluence on 55 cm^2 culture dishes, treated according to the indicated conditions, and harvested in ice-cold PBS containing 1 mM EDTA. The cell lysates were pelleted in a microfuge (2 minutes, 13000 rpm, 4° C.) and subsequently homogenized in a buffer containing 25 mM Tris-HCl, pH 7.4, 1 mM EDTA, 1 mM EGTA. eNOS activity was determined by measuring the conversion of [^3H]-arginine to [^3H]-citrulline. Rat cerebellum extracts, containing elevated amounts of neuronal NOS, were used as positive controls, while endothelial cell extracts incubated in the presence of the competitive eNOS inhibitor L-NAME (1 mM) served as negative controls.
Human and bovine aortic endothelial cells were harvested enzymatically with Type IA collagenase (1 mg/mL).

Another assay relates to PI3-kinase. Kind of assay: PI3-kinase assay on p85 immunoprecipitates of endothelial cell lysates. It counts as cell-based, human. The settings on record: E2 10 nM 20 min; ICI 10 μM, wortmannin 30 nM. As for the experimental part: PI3kinase activity in endothelial cell lysates was assayed using the borate thin layer chromatography method, as described.^34 Following a 6 h incubation in serum- and estrogen-deficient medium 199, endothelial cells were treated according to the indicated conditions, washed, and harvested in ice-cold lysis buffer (137 mM NaCl, 20 mM Tris-HCl, pH 7.4, 1 mM CaCl2, 1 mM Mg Cl2, 0.1 mM Na3VO4, 1% NP-40). After pelleting the cell debris, the supernatant was incubated for 1 hour at 4° C. with 5 μL of a rabbit antiserum directed against the p85 regulatory subunit of the PI3-kinase (Upstate Biotechnology, Lake Placid, N.Y.), and immunoprecipitated with the addition of 50 μL of a 1:1 slurry of protein A-agarose for 1 hour at 4° C. Following centrifugation, the immunoprecipitates were washed three times with lysis buffer, three times with 0.1 M Tris-HCl, pH 7.4, 5 mM LiCl, 0.1 mM Na3VO4, followed by two washes with 10 mM Tris-HCl, pH 7.4, 150 mM NaCl, 5 mM EDTA, 0.1 mM Na3VO4.
The immunoprecipitates were then mixed with 50 μL Tris-HCl, pH 7.4, 150 mM NaCl, 5 mM EDTA, 20 μg of phosphatidylinositol (Sigma, Saint Louis, Mo.), 10 μL 100 mM MgCl2 and 5 μL of a 0.88 mM ATP, 20 mM MgCl2 solution, containing 30 μCi of [γ-^32P]ATP (3000 Ci/mmol; NEN Life Science Products, Boston, Mass.). […] The phospholipids were extracted with 160 μL of chloroform/methanol (1:1, v/v). 50 μL of the organic phase, containing the labeled PI3-kinase products were separated by borate thin layer chromatography on glass-backed Silica Gel 60 plates (EM Separations, Gibbstown, N.J.) pretreated with a solution containing 25 mM trans-1,2-diaminocyclohexane-N,N,N′N′-tetraacetic acid (CDTA, Sigma, Saint Louis, Mo.), 66% (v/v) ethanol and 0.06 N NaOH, dried for 1 hour and then baked at 100° C. for 15 minutes. The chromatography was developed with a solution containing 37.5% (v/v) methanol, 30% (v/v) chloroform, 22.5% (v/v) pyridine (Sigma, Saint Louis, Mo.), 1.33% (v/v) formic acid, […] boric acid and 8.5 mM butylated hydroxytoluene (Sigma, Saint Louis, Mo.), briefly dried and exposed to autoradiography.

In the next assay the target is T2, ER-α / PI3-kinase p85α (Homo sapiens, UniProt P03372).
T2 construct: endogenous in cells; host or cells: human endothelial cells (HSVEC), anti-ERα immunoprecipitate
T2 sequence (P03372 1-595): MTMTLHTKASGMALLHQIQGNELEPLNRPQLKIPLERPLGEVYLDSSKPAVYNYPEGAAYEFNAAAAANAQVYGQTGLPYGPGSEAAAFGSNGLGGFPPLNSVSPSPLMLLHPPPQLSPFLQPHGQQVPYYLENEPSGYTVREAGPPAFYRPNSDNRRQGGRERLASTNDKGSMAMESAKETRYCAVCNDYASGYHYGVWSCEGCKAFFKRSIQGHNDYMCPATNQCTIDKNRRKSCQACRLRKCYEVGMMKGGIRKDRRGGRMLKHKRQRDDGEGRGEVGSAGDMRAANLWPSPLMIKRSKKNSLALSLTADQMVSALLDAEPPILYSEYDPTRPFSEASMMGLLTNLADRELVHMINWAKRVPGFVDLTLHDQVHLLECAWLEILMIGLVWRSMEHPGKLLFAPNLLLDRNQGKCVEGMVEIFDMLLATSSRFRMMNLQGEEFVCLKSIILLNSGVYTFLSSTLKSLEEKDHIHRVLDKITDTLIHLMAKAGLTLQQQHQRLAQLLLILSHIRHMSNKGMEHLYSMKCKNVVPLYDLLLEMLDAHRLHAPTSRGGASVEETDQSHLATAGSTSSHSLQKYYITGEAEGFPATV
Nature of the assay: ER-α immunoprecipitation: co-precipitated p85α and associated PI3-kinase activity. It counts as cell-based. The settings on record: ICI 10 μM, wortmannin, tamoxifen 1 μM, PD 98059 5 μM, actinomycin D 5 μM.

For the next assay, the system named is ERK 1 and 2. Nature of the assay: Immunoblotting of ERK 1/2 phosphorylation. Particulars: E2 10 nM, PD 98059 5 μM. It counts as cell-based, human. As for the experimental part:
After the different treatments, serum-starved endothelial cells were rinsed once with ice-cold PBS before addition of the lysis buffer (100 mM Tris-HCl, pH 6.8, 4% SDS, 20% glycerol, 1 mM sodium orthovanadate, 1 mM NaF, and 1 mM phenylmethylsulfonylfluoride) to the dishes on an ice tray. The cell lysates were scraped, boiled, and centrifuged for 2 min at 13000 rpm. Total cell lysates (40 μg of protein) and low range molecular weight markers (BIO-RAD, Hercules, Calif.) were separated by SDS-polyacrylamide gel electrophoresis (12% running, 4% stacking), electrophoretically transferred to polyvinylidene fluoride membranes (Immobilon P, 0.45 μm pore size) and incubated overnight at 4° C. with blocking solution (5% skim milk in TBS—0.1% Tween 20). Affinity-purified rabbit antibodies (0.4 μg of IgG/ml) vs. Akt, (Ser 473) phospho-Akt or (Thr 308) phospho-Akt (New England BioLabs, Beverly, Mass.), Erk1/2, (Tyr 204) phospho-Erk-1/-2 (Calbiochem, San Diego, Calif.) were incubated with the membranes overnight at 4° C. in TBS—0.1% Tween 20 containing 5% BSA. The blots were washed three times with TBS—0.1% Tween 20 and then treated with donkey anti-rabbit antibody (1:4000 dilution) coupled to horseradish peroxidase. Immunodetection was accomplished using the enhanced chemoluminescence kit (ECL Kit, Amersham Corp.).
Background: A western blot detects proteins with antibodies after separation by electrophoresis.

The target in the next assay is T3, ERα-p85α interaction (Homo sapiens, UniProt P03372).
T3 construct: purchased Panvera (ERα)
T3 sequence (P27986 whole entry partner, one chain of several): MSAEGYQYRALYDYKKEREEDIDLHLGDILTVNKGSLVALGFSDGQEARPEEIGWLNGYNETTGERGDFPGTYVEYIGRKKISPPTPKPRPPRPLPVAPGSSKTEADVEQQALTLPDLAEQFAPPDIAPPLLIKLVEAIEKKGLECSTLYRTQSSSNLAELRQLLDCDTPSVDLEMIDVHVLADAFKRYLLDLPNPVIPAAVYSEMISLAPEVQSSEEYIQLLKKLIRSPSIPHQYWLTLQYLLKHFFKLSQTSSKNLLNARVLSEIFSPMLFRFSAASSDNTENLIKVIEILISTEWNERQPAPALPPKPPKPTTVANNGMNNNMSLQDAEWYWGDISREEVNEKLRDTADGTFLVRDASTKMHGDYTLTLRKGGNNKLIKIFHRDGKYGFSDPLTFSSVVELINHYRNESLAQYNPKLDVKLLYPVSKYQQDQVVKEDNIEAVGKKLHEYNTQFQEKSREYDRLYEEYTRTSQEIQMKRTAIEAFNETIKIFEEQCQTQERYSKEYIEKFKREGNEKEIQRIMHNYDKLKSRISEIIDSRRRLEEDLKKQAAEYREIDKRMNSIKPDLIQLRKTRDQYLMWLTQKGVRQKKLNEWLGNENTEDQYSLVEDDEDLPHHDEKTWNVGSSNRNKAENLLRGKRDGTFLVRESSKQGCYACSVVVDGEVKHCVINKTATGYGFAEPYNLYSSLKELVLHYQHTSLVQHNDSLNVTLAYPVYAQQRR
Nature of the assay: GST fusion protein-affinity purification (GST-p85α and recombinant ERα, cell-free). It is filed as binding. The settings on record: recombinant ERα, Hsp90 0.5 μg. As for the experimental part: Human recombinant GST-p85α fusion protein or GST (Sigma, St. Louis, Mo.) bound to glutathione-agarose beads (1 μg protein/20 μL beads) were suspended in 400 μL of E. Coli protein extract solution (10 mg/mL) and incubated with 1 μg human recombinant ERα (Panvera, Madison, Wis.) for 1 h at 4° C. The samples were pelleted, and the beads were washed 5 times with a buffer containing 50 mM potassium phosphate, pH 7.5, 150 mM KCl, 1 mM MgCl2, 10% (v/v) glycerol, 1% (v/v) Triton X-100 plus protease inhibitors. The beads were re-suspended in 50 μL of 2×Laemmli's buffer and boiled for 5 min. Proteins were separated on SDS-polyacrylamide gel electrophoresis.

“Also recorded” adds a separate entry of the source.

Consider `COC(=O)[C@@H](N)CCCNC(=N)N[N+](=O)[O-]` [L-NAME, L-nitroarginine methylester], for which the “leukocyte rolling velocity and accumulation, untreated vs E2-treated mice following I/R, with inhibitor applied to the cremaster muscle” value in assay [1] was “not different”. Moreover, on eNOS [2], the “effect of applied inhibitor on cremaster eNOS activity” value is “decreased eNOS activity below that of untreated mice”.

As to `COc1cccc(-c2cc(=O)c3ccccc3o2)c1N` [PD98059], the “effect on E2-stimulated eNOS activity, later phase (≥15 min) or 30 min” value with eNOS [3] is recorded as “only minimally affected; also recorded: not the later phase; also recorded: little or no inhibitory effect”; with eNOS [3] (listed as PD 98059), “do not block”. Also, the “effect on E2-stimulated eNOS activity, initial phase (first 5-10 min)” value with eNOS [3] was “able to block; also recorded: significantly blocked”; with eNOS [3] (listed as PD 98059), “blunt”. Also, the “effect on E2-induced PI3-kinase activation” value in the assay on PI3-kinase was “only minimally affected”. Further, the “effect on E2-stimulated ER-α-associated PI3-kinase activity” value on ER-α / PI3-kinase p85α is reported as “not”. The “effect on E2-stimulated ERK-1 and -2 phosphorylation” value is “inhibited” in the assay with ERK 1 and 2; “abolished” with ERK 1 and 2 (listed as PD 98059).

Take “Heat shock protein 90: heat shock protein that binds and facilitates the function of ER and eNOS”: the “effect on interaction of ERα and p85α” value is on record as “inhibited” with ERα-p85α interaction and “inhibits” with ERα-p85α interaction (listed as Hsp90).
